{"source": "patent US11440932B2", "about": "“Surfactant compounds-clips for extraction and stabilization in solution of membrane proteins” (CENTRE NATIONAL DE LA RECHERCHE SCIENTIFIQUE, priority 2017, dated 2022)", "key": {"[1]": {"target": "T1, AcrB (Escherichia coli, UniProt P31224)", "T1 construct": "made in house; host or cells: E. coli C41(DE3)", "T1 sequence (P31224 whole entry)": "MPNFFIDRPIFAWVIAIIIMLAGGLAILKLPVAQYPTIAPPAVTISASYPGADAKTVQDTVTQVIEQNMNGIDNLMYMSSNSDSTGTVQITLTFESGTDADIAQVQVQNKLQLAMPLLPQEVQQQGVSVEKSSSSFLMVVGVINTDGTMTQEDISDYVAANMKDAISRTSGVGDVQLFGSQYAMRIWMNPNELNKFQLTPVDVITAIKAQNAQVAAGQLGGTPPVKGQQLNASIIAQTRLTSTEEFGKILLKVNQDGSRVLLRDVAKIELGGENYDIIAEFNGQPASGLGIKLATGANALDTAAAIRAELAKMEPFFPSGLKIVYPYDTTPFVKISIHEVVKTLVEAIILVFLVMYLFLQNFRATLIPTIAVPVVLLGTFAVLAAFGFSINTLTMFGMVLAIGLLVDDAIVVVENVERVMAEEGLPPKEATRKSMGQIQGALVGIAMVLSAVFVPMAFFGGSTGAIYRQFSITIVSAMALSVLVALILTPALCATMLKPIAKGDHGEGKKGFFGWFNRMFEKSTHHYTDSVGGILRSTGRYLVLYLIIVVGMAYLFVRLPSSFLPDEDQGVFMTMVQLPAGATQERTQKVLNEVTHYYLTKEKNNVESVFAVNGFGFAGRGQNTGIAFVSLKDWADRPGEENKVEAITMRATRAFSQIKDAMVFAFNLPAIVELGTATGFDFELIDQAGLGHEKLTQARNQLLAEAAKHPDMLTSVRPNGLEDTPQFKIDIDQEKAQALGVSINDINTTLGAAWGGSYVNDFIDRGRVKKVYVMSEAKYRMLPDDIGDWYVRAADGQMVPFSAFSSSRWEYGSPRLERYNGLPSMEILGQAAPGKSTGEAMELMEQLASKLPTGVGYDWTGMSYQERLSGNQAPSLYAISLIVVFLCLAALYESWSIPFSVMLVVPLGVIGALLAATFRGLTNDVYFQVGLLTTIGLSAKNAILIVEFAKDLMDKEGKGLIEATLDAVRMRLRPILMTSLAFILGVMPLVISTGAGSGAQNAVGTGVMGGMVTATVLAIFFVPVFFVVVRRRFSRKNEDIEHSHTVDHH", "assay": "Extraction of AcrB from membranes (SDS-PAGE of supernatant)", "design": "species or system bacterial; same expression system (E. coli C41DE3)", "description": "(§1) FIG. 6 depicts the extraction of the membrane proteins BmrA (panels A and C) and AcrB (panels B and D) using commercial detergents and the molecules of the invention (panels A and B, from left to right): SDS, DDM, FC12, TX100, compounds of the invention 1.4, 1.5, 2.3a, 2.3b, 2.3c, 2.3d, 2.3e, 2.3f, 2.3g, 2.3h, 2.3i, 3.7a, 3.7b; panel C: compounds of the invention 3.7c 0.8%, 3.7d 0.16%, 3.7e 0.8%, 3.7f 0.3%, 3.7g 0.4%, 3.7h 0.2%, 3.7i 0.07%, 3.7j 0.09%, 3.7k, 3.7l, 0.25%, 3.9a, 4.5a, 4.5b, 4.5c, 4.5d 0.34%, 4.6a, 4.6b, 4.6c, 4.6d, 5.3a, 5.3b, 5.3c 0.3%, 5.3d 0.3%; panel D: 3.7c, 3.7d, 3.7e, 3.7f, 3.7h, 3.7i 0.1%, 3.7j, 3.7k, 3.7l, 3.9a, 4.5a, 4.5b, 4.5c, 4.5d, 4.6a, 4.6b, 4.6c, 4.6d. The detergents are added at 10 g/l (1%), unless indicated otherwise. The equivalent of 20 μg of proteins of the extracted fraction after centrifugation at 100 000×g for 30 min is deposited on 10% SDS-PAGE, stained with Coomassie blue after migration. BmrA migrates in its monomeric form to the level of the 55 kDa band; AcrB migrates in its monomeric form to the level of the 100 kDa band. SDS=sodium dodecyl sulfate; DDM=β-D-dodecyl maltoside; FC12=foscholine-12; TX100=triton X-100.\n(§2) The extraction capacity of the detergents of the series is tested on membranes in which BmrA or AcrB are strongly expressed. The extraction with the clips (molecules of the invention) is compared to that obtained with commercial detergents, used as reference.\n(§3) Procedure. BmrA represents 25% of the proteins present in the overexpression system used (E. coli, C41DE3). These membranes are prepared as described previously (Matar-Merheb, R. et al. ([11])). The membranes containing AcrB (approximately 20% of the membrane proteins, same expression system as BmrA) were prepared as described previously (Seeger, M. A. et al. ([21])). The detergents are used at 10 g/l unless indicated otherwise, and the proteins diluted at 2 g/l in a 20 mM Tris-HCl buffer, pH 8.0, 100 mM NaCl, 15% glycerol, with protease inhibitors (Roche) added thereto at an amount of one tablet/100 ml. The mixture (T) is incubated for 2 h at 4° C. then centrifuged for 1 h at 4° C. at 100 000×g in order to separate the extracted fraction (supernatant, S) from that which is not extracted (pellet). The supernatants are deposited on 10% SDS-PAGE and stained with Coomassie blue after migration. The foscholine 12, DDM and LMNG originate from Anatrace, the SDS and Triton X100 originate from Sigma-Aldrich."}, "[2]": {"target": "T2, BmrA (Bacillus subtilis, UniProt O06967)", "T2 construct": "His tag; made in house; host or cells: E. coli C41(DE3)", "T2 sequence (O06967 whole entry)": "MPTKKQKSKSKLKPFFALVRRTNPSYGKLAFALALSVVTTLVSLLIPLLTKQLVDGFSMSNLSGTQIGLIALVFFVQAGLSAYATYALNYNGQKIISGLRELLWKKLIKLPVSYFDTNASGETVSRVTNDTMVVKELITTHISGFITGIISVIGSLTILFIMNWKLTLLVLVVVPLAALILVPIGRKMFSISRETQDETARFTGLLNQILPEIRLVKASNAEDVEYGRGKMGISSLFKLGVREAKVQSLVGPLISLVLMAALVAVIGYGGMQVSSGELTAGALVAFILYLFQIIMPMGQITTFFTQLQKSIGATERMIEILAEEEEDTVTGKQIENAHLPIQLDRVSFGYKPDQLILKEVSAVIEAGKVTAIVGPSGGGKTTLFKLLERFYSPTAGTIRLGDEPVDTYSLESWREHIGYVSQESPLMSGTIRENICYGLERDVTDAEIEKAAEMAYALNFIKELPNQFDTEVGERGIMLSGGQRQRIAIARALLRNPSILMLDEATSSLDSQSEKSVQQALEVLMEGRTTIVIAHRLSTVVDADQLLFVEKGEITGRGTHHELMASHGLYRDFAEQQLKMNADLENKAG", "assay": "Extraction of BmrA from membranes (SDS-PAGE of supernatant)", "design": "species or system bacterial; overexpressed in E. coli C41DE3", "conditions": "detergent 10 g/l unless indicated otherwise; 2 h at 4° C.", "description": "as §1, §2, §3"}, "[3]": {"assay": "Critical micelle concentration (CMC) by DPH fluorescence", "assay_type": "physicochemical", "conditions": "50 mM tris-HCl, pH 8.0", "description": "FIG. 4 represents the fluorescence (%) of DPH (1,6-diphenyl-1,3,5-hexatriene) in the presence of increasing concentrations (0.0001 mM, 0.001 mM, 0.01 mM, 0.1 mM, 1 mM and 10 mM) of clips (compounds of the invention), exemplified with the compounds #3.7e (C13, points represented by squares) and 3.7f (C18, points represented by circles). The experiment is carried out in triplicates. In accordance with Chattopadhyay, A. & London, E ([22]), the CMC corresponds to the concentration at which the breakage in the slope is observed, here at 20 μM for 3.7f and 2 mM for 3.7e (black symbols).\nProcedure. The molecules of the invention were prepared in a range of concentrations extending from 0.1 μM to 10 mM in 50 mM tris-HCl, pH 8.0 and neutralized at this pH. To 80 μl of each solution (triplicate), the same volume of 10 μM of 1,6-diphenyl-1,3,5-hexatriene (DPH, Sigma, D208000) is added, prepared at 100 μM in tetrahydrofuran then diluted 10-fold in H2O. The increase in the fluorescence of the DPH occurs when the latter find micelles of clips into which it can insert itself (Chattopadhyay, A. & London, E. Fluorimetric determination of critical micelle concentration avoiding interference from detergent charge. Anal Biochem 139, 408-412 (1984) ([22])). The fluorescence is read with a Xenius SAFAS fluorimeter by exciting at 358 nm and recording the fluorescence emission at 430 nm, with slits of 9 to 10 nm for the excitation and the emission and a gain of 100 to 150, depending on the cases.\nResults. The CMC of the detergents is the concentration starting from which they associate with one another to form micelles, in which, in aqueous solution, the hydrophobic portions are grouped together at the center and the hydrophilic regions are exposed to the solvent. […] A typical result obtained with a compound 3.7 provided with a C13 (3.7e) or C18 ([…]) aliphatic chain is illustrated in FIG. 4."}}, "note": "“Also recorded” adds a separate entry of the source. Residues, ends and D or L forms follow the SMILES beside them. *: point of attachment. Palmitoyl = CCCCCCCCCCCCCCCC(=O)*"}
{"compound": "CCCCCCCCCCCCCCCC(=O)NC(CC(=O)NC(CCC(=O)O)C(=O)O)C(=O)NC(CCC(=O)O)C(=O)O", "note": "(stereo not shown) [Compound 4.6d] (Palmitoyl-Asp(Glu)-Glu-OH; configuration not given here)", "values": [{"measurement": "selective extraction AcrB versus BmrA", "setting": "[1]; comparison of extraction of AcrB and BmrA", "value": "not extract, or only very slightly extract, AcrB, unlike BmrA"}, {"measurement": "extraction of AcrB", "setting": "[1]; detergent 10 g/l unless indicated otherwise, 2 h at 4° C.", "value": "extracting; also recorded: partially extract"}, {"measurement": "extraction of BmrA", "setting": "[2]", "value": "extracting"}, {"measurement": "CMC", "setting": "[3]", "value": 1, "unit": "mM"}]}
